Data as given in patent US20050084914A1, “Assays with primary cells” (priority 2003, published 2005).
Blank lines part the entries; values can stand above or below the compound they belong to.

What was measured:
HRPTE cells = experiment: cytotoxicity response of HRPTE cells (death index, live/dead assay); assay type: cell-based, human; settings: HRPTE cells in 96-well microplate wells or on coded carriers; various concentrations
Description: This example describes how multiplexed analysis using coded carriers may be used to study the cytotoxicity response of HRPTE cells to staurosporine, in accordance with aspects of the present teachings; see FIG. 7.
Specifically, HRPTE cells are grown directly attached to wells of a standard 96-well microplate, or on coded carriers that optionally may be placed in wells of the microplate. A “death index” (e.g., the fraction of observed cells that are dead) may be used as a measure of cytotoxicity. The death index may be computed using any suitable mechanism, such as a fluorescence-based “live/dead assay.” In an exemplary version of the assay, live cells are labeled green using a membrane-permeant calcein AM, which is cleaved by esterases in live cells to yield cytoplasmic green fluorescence, and dead cells are labeled red using a membrane-impermeant ethidium homodimer-1, which passes through the compromised membranes of dead cells to label nucleic acids with red fluorescence. […] This reduction may be particularly significant in assays on primary cells, because primary cells typically are difficult to obtain and maintain.

PPARγ = biological target: T1, PPARγ (Homo sapiens, UniProt P37231); experiment: PPARγ activity assay based on PEPCK expression in primary pre-adipocytes on coded carriers; settings: four donor samples (visceral and subcutaneous pre-adipocytes), shared fluid volume, four days
T1 sequence (P37231 1-505): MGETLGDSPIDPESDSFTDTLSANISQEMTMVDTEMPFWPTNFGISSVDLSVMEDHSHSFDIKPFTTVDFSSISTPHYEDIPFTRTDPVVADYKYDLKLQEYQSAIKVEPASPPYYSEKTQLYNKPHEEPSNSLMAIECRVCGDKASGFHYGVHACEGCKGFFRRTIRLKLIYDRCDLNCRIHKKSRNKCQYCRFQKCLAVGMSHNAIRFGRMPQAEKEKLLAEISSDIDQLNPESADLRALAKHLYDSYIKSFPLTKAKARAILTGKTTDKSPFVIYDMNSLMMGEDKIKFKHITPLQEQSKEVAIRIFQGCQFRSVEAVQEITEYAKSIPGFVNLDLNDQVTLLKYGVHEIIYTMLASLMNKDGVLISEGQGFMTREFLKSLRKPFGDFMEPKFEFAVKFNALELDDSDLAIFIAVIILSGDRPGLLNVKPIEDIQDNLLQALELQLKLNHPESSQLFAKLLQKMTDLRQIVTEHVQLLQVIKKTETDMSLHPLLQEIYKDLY
Description: This differentiation may be visualized readily and scored by staining lipid droplets that accumulate in the cytoplasm of the adipocytes during and/or after their differentiation. Furthermore, this adipocyte differentiation and/or activation of PPARγ may be followed by measuring the expression levels (RNA and/or protein) of PPARγ target genes (direct or indirect targets), such as PEPCK (phosphoenolpyruvate carboxykinsae) and/or FABP4 (fatty acid binding protein 4), among others.
Staining was via indirect immunofluorescence. Cells were counterstained with a nuclear dye (Hoechst) for data normalization, here and in other assays. […] Each sample of primary cells corresponds to pre-adipocytes isolated from visceral tissue (samples starting with the letter “V”) or isolated from subcutaneous tissue (samples starting with the letters “SC”) and were supplied by Cambrex. […] Each sample was connected to a distinct class of coded carriers (having a distinct code) to permit identification of the sample after combining the different classes of carrier and samples in a shared volume. […] Lipid accumulation and PEPCK expression were then measured with the samples still disposed in the same microplate wells. […]

[1] = tested on: primary human renal proximal tubule epithelial (HRPTE) cells; experiment: proliferative response of primary HRPTE cells (S-phase index); assay type: cell-based; settings: HRPTE cells in 96-well microplate wells or on coded carriers; various concentrations
Description: This example describes how multiplexed analysis using coded carriers may be used to assay the effects of camptothecin on the proliferative response of primary human renal proximal tubule epithelial (HRPTE) cells, in accordance with aspects of the present teachings; see FIG. 6.
Specifically, HRPTE cells are grown directly in wells of a standard 96-well microplate, to three different cell densities (indicated as the stated number of cells), or on coded carriers that optionally may be placed in wells of the microplate. An “S-phase index” (e.g., the fraction of cells in the S-phase of the cell cycle) is used as a measure of cell proliferation. […] This reduction may be particularly significant in assays on primary cells, because primary cells typically are difficult to obtain and maintain.

SMILES: CN[C@@H]1C[C@H]2O[C@@](C)([C@@H]1OC)n1c3ccccc3c3c4c(c5c6ccccc6n2c5c31)C(=O)NC4 [staurosporine]
death index (fraction of dead cells) (HRPTE cells): generally increases with increasing staurosporine concentration

induction of PEPCK expression as a measure of PPARγ activity (PPARγ): relatively strong induction
SMILES: COc1ccc2c(c1)c(CC(=O)O)c(C)n2C(=O)c1ccc(Cl)cc1 [Indomethacin, indomethacin]

SMILES: CC[C@@]1(O)C(=O)OCc2c1cc1n(c2=O)Cc2cc3ccccc3nc2-1 [camptothecin]
S-phase index as a measure of cell proliferation [1]: S-phase index generally decreases with increasing camptothecin concentration
